Source: patent US20090042874A1, “ANTIDEPRESSANT HETEROARYL DERIVATIVES OF HETEROCYCLE-FUSED BENZODIOXANS” (WYETH, priority 2007, published 2009)
Where a name gives a salt, the structure may show the parent alone.

Tests used:
[1] = target: T1, serotonin transporter (Rattus norvegicus, UniProt P31652); assay: Displacement of 3H-paroxetine from male rat frontal cortical membranes (serotonin transporter affinity); assay type: binding; settings: 3H-paroxetine displacement, read-out: 5-HT Transporter Affinity Ki
T1 construct: displace ^3H-paroxetine from male rat frontal cortical membranes; from tissue; host or cells: male rat frontal cortex membranes
T1 sequence (P31652 whole entry): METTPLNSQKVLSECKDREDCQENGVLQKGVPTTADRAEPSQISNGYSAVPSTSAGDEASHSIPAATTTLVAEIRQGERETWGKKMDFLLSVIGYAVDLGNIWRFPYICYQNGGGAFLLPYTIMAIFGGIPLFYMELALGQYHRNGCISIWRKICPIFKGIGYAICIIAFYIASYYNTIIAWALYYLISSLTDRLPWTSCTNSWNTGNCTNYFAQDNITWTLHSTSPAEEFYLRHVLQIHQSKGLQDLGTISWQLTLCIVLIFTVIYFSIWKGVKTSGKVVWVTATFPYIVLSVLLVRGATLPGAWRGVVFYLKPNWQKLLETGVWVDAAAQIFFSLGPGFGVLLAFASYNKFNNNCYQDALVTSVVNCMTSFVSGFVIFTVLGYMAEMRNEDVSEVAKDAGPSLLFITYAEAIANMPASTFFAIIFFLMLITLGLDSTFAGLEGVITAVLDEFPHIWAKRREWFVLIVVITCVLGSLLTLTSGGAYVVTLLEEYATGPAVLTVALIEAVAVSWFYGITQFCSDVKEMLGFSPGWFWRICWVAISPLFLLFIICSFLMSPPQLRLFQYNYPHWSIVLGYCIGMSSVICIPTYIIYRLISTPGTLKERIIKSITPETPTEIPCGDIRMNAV
Excerpt: Affinity of Compounds of the Invention for the Serotonin Transporter

[2] = target: T2, human 5HT1A receptors (Homo sapiens, UniProt P08908); assay: Displacement of [3H] 8-OH-DPAT from 5HT1A receptor, CHO cells stably transfected with human 5HT1A receptors; assay type: binding; settings: [3H] 8-OH-DPAT displacement, CHO cells with human 5HT1A; read-out: 5HT1A Receptor Affinity Ki
T2 construct: expressed in transfected cells; host or cells: CHO cells
T2 sequence (P08908 1-422): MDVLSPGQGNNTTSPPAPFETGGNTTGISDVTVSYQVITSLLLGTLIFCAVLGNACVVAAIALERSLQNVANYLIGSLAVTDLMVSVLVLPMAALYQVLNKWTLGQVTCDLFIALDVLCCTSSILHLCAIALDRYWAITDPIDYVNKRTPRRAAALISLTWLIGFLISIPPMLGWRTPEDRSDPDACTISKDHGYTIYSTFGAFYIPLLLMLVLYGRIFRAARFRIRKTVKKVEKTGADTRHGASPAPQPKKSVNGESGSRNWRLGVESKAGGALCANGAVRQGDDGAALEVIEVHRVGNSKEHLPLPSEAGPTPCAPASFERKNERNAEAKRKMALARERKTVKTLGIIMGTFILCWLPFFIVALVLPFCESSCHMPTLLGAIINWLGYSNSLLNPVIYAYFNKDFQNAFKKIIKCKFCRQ
Excerpt: High affinity for the serotonin 5HT1A receptor was established by testing the claimed compound's ability to displace [^3H] 8-OH-DPAT (dipropylamino-tetralin) from the 5HT1A serotonin receptor following a modification of the procedure of Hall et al., J. Neurochem. 44, 1685 (1985) which utilizes CHO cells stably transfected with human 5HT1A receptors.

| SMILES | melting point | Ki [1] | Ki [2] |
| --- | --- | --- | --- |
| Cc1ccc2c3c(ccc2n1)OC[C@H](CN1CCCC(Cc2ccc4c(c2)NC(=O)CO4)C1)O3 (stereo partly drawn) (as salt: hydrochloride) [Example 16, 6-[(1-{[(2S)-8-Methyl-2,3-dihydro[1,4]dioxino[2,3-f]quinolin-2-yl]methyl}piperidin-3-yl)methyl]-2H-1,4-benzoxazin-3(4H)-one dihydrochloride salt] | 200 to 205 °C | – | – |
| CNCCCCOc1ccc2c(c1)NC(=O)CO2 [Example 10, 6-[4-(Methylamino)butoxy]-2H-1,4-benzoxazin-3(4H)-one hydrochloride salt] | – | 58.5 nM | – |
| Cc1ccc2c3c(ccc2n1)OC[C@H](CN1CCC(Oc2ccc4c(c2)N(C)C(=O)CO4)CC1)O3 (as salt: hydrochloride) [Example 5, 4-Methyl-6-[(1-{[(2S)-8-methyl-2,3-dihydro[1,4]dioxino[2,3-f]quinolin-2-yl]methyl}piperidin-4-yl)oxy]-2H-1,4-benzoxazin-3(4H)-one dihydrochloride salt] | 164 °C (dec.) | – | – |
| Cc1ccc2c3c(ccc2n1)OC[C@H](CN1CCC(Cc2ccc4c(c2)N(C)C(=O)CO4)CC1)O3 (as salt: hydrochloride) [Example 12, 4-Methyl-6-[(1-{[(2S)-8-methyl-2,3-dihydro[1,4]dioxino[2,3-f]quinolin-2-yl]methyl}piperidin-4-yl)methyl]-2H-1,4-benzoxazin-3(4H)-one dihydrochloride salt] | 205 to 208 °C | – | – |
| CNCCCCOc1ccc2c(c1)NC(=O)CO2 (as salt: hydrochloride) [Example 10, 6-[4-(Methylamino)butoxy]-2H-1,4-benzoxazin-3(4H)-one hydrochloride salt] | 210 to 212 °C | – | – |
| Cc1ccc2c3c(ccc2n1)OC[C@H](CN1CC[C@@H](Oc2ccc4c(c2)NC(=O)CO4)C1)O3 (as salt: hydrochloride) [Example 9, 6-{[(3R)-1-{[(2S)-8-Methyl-2,3-dihydro[1,4]dioxino[2,3-f]quinolin-2-yl]methyl}pyrrolidin-3-yl]oxy}-2H-1,4-benzoxazin-3(4H)-one dihydrochloride salt] | 183 °C (dec.) | – | – |
| Cc1ccc2c3c(ccc2n1)OC[C@H](CNC1CCN(c2ccc4c(c2)NC(=O)CO4)CC1)O3 (as salt: hydrochloride) [Example 18, 6-(4-{[(8-methyl-2,3-dihydro[1,4]dioxino[2,3-f]quinolin-2-yl)methyl]amino}piperidin-1-yl)-2H-1,4-benzoxazin-3(4H)-one dihydrochloride salt] | 240 °C (dec.) | – | – |
| Cc1ccc2c3c(ccc2n1)OC[C@H](CN1CC[C@H](Oc2ccc4c(c2)NC(=O)CO4)C1)O3 [Example 8, 6-{[(3S)-1-{[(2S)-8-Methyl-2,3-dihydro[1,4]dioxino[2,3-f]quinolin-2-yl]methyl}pyrrolidin-3-yl]oxy}-2H-1,4-benzoxazin-3(4H)-one dihydrochloride salt] | – | 18.2 nM | 1.49 nM |
| Cc1ccc2c3c(ccc2n1)OC[C@H](CN1CCCC(Cc2ccc4c(c2)N(C)C(=O)CO4)C1)O3 (stereo partly drawn) (as salt: hydrochloride) [Example 15, 4-Methyl-6-[(1-{[(2S)-8-methyl-2,3-dihydro[1,4]dioxino[2,3-f]quinolin-2-yl]methyl}piperidin-3-yl)methyl]-2H-1,4-benzoxazin-3(4H)-one dihydrochloride salt] | 249 to 251 °C | – | – |
| Cc1ccc2c3c(ccc2n1)OC[C@H](CN1CCCC(Cc2ccc4c(c2)N(C)C(=O)CO4)C1)O3 (stereo partly drawn) [Example 15, 4-Methyl-6-[(1-{[(2S)-8-methyl-2,3-dihydro[1,4]dioxino[2,3-f]quinolin-2-yl]methyl}piperidin-3-yl)methyl]-2H-1,4-benzoxazin-3(4H)-one dihydrochloride salt] | – | 82 nM | 0.68 nM |
| Cc1ccc2c3c(ccc2n1)OC[C@H](CN1CC[C@@H](Oc2ccc4c(c2)NC(=O)CO4)C1)O3 [Example 9, 6-{[(3R)-1-{[(2S)-8-Methyl-2,3-dihydro[1,4]dioxino[2,3-f]quinolin-2-yl]methyl}pyrrolidin-3-yl]oxy}-2H-1,4-benzoxazin-3(4H)-one dihydrochloride salt] | – | 4.5 nM | 3.53 nM |
| Cc1ccc2c3c(ccc2n1)OC[C@H](CNCCCCOc1ccc2c(c1)NC(=O)CO2)O3 (as salt: hydrochloride) [Example 6, 6-[4-({[(2S)-8-Methyl-2,3-dihydro[1,4]dioxino[2,3-f]quinolin-2-yl]methyl}amino)butoxy]-2H-1,4-benzoxazin-3(4H)-one dihydrochloride salt] | 143 °C (dec.) | – | – |
| Cc1ccc2c3c(ccc2n1)OC[C@H](CN1CCC(CCc2ccc4c(c2)NC(=O)CO4)CC1)O3 (as salt: hydrochloride) [Example 14, 6-[2-(1-{[(2S)-8-Methyl-2,3-dihydro[1,4]dioxino[2,3-f]quinolin-2-yl]methyl}piperidin-4-yl)ethyl]-2H-1,4-benzoxazin-3(4H)-one dihydrochloride salt] | 202 to 205 °C | – | – |
| Cc1ccc2c3c(ccc2n1)OC[C@H](CN1CCC(Cc2ccc4c(c2)NC(=O)CO4)CC1)O3 (as salt: hydrochloride) [Example 2, 6-[(1-{[(2S)-8-Methyl-2,3-dihydro[1,4]dioxino[2,3-f]quinolin-2-yl]methyl}piperidin-4-yl)methyl]-2H-1,4-benzoxazin-3(4H)-one dihydrochloride] | 215 °C (dec.) | – | – |
| Cc1ccc2c3c(ccc2n1)OC[C@H](CN1CCC(Oc2ccc4c(c2)NC(=O)CC4)CC1)O3 [Example 17, 7-[(1-{[(2S)-8-Methyl-2,3-dihydro[1,4]dioxino[2,3-f]quinolin-2-yl]methyl}piperidin-4-yl)oxy]-3,4-dihydroquinolin-2(1H)-one dihydrochloride salt] | – | 38.1 nM | 0.28 nM |
| Cc1ccc2c3c(ccc2n1)OC[C@H](CN1CCC(Cc2ccc4c(c2)NC(=O)CO4)CC1)O3 [Example 2, 6-[(1-{[(2S)-8-Methyl-2,3-dihydro[1,4]dioxino[2,3-f]quinolin-2-yl]methyl}piperidin-4-yl)methyl]-2H-1,4-benzoxazin-3(4H)-one dihydrochloride] | – | 8.9 nM | 0.16 nM |
| Cc1ccc2c3c(ccc2n1)OC[C@H](CN1CCC(CCc2ccc4c(c2)N(C)C(=O)CO4)CC1)O3 (as salt: hydrochloride) [Example 13, 4-Methyl-6-[2-(1-{[(2S)-8-methyl-2,3-dihydro[1,4]dioxino[2,3-f]quinolin-2-yl]methyl}piperidin-4-yl)ethyl]-2H-1,4-benzoxazin-3(4H)-one dihydrochloride salt] | 185 to 189 °C | – | – |
| Cc1ccc2c3c(ccc2n1)OC[C@H](CNC1CCN(c2ccc4c(c2)NC(=O)CO4)CC1)O3 [Example 18, 6-(4-{[(8-methyl-2,3-dihydro[1,4]dioxino[2,3-f]quinolin-2-yl)methyl]amino}piperidin-1-yl)-2H-1,4-benzoxazin-3(4H)-one dihydrochloride salt] | – | 35.2 nM | 0.93 nM |
| CNCCCOc1ccc2c(c1)NC(=O)CO2 [Example 11, 6-[3-(Methylamino)propoxy]-2H-1,4-benzoxazin-3(4H)-one] | – | 81 nM | – |
| Cc1ccc2c3c(ccc2n1)OC[C@H](CNCCCOc1ccc2c(c1)NC(=O)CO2)O3 (as salt: hydrochloride) [Example 7, 6-[3-({[(2S)-8-Methyl-2,3-dihydro[1,4]dioxino[2,3-f]quinolin-2-yl]methyl}amino)propoxy]-2H-1,4-benzoxazin-3(4H)-one dihydrochloride salt] | 184 °C (dec.) | – | – |
| Cc1ccc2c3c(ccc2n1)OC[C@H](CNCCCOc1ccc2c(c1)NC(=O)CO2)O3 [Example 7, 6-[3-({[(2S)-8-Methyl-2,3-dihydro[1,4]dioxino[2,3-f]quinolin-2-yl]methyl}amino)propoxy]-2H-1,4-benzoxazin-3(4H)-one dihydrochloride salt] | – | – | 0.1 nM |
| Cc1ccc2c3c(ccc2n1)OC[C@H](CN1CC[C@H](Oc2ccc4c(c2)NC(=O)CO4)C1)O3 (as salt: hydrochloride) [Example 8, 6-{[(3S)-1-{[(2S)-8-Methyl-2,3-dihydro[1,4]dioxino[2,3-f]quinolin-2-yl]methyl}pyrrolidin-3-yl]oxy}-2H-1,4-benzoxazin-3(4H)-one dihydrochloride salt] | 183 °C (dec.) | – | – |
| CNCCCOc1ccc2c(c1)NC(=O)CO2 (as salt: hydrochloride) [Example 11, 6-[3-(Methylamino)propoxy]-2H-1,4-benzoxazin-3(4H)-one] | 193 to 194 °C | – | – |
| Cc1ccc2c3c(ccc2n1)OC[C@H](CN1CCC(Oc2ccc4c(c2)NC(=O)CO4)CC1)O3 (as salt: hydrochloride) [Example 1, 6-[(1-{[(2S)-8-methyl-2,3-dihydro[1,4]dioxino[2,3-f]quinolin-2-yl]methyl}piperidin-4-yl)oxy]-2H-1,4-benzoxazin-3(4H)-one dihydrochloride salt] | 216 to 219 °C (dec.) | – | – |
